In ChEMBL document CHEMBL1143431, “Synthesis and evaluation of pyrazolo[1,5-b]pyridazines as selective cyclin dependent kinase inhibitors” (Bioorg Med Chem Lett, 2008):

How the values were obtained:
[1] = target: Vascular endothelial growth factor receptor 2 (Homo sapiens, UniProt P35968); experiment: Inhibition of VEGFR2 by HTRF assay
[2] = target: Cyclin-dependent kinase 4 (Homo sapiens, UniProt P11802); experiment: Inhibition of CDK4 by radioactive glutathione plate-binding assay
[3] = target: Cyclin-dependent kinase 2 (Homo sapiens, UniProt P24941); experiment: Inhibition of human CDK2 by HTRF assay
[4] = test system: Mus musculus; experiment: Dose normalized AUC in orally dosed mouse; format: ADME, organism-based; conditions: in vivo, po
[5] = target: Glycogen synthase kinase-3 beta (Homo sapiens, UniProt P49841); experiment: Inhibition of GSK3-beta by scintillation proximity assay
Glycogen synthase kinase-3 beta, sequence (P49841 whole entry): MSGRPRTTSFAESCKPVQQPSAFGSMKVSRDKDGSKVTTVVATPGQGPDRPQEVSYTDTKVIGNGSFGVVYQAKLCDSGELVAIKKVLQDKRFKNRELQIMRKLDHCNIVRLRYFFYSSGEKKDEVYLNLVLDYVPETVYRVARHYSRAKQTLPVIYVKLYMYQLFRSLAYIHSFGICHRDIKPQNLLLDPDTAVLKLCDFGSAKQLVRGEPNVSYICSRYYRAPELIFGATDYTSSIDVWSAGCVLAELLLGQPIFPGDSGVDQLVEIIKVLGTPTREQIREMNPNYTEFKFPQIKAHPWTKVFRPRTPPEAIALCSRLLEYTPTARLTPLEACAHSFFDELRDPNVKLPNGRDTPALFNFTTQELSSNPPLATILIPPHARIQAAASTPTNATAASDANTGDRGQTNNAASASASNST

[6] = test system: Mus musculus; experiment: Dose normalized AUC in ip dosed mouse; format: ADME, organism-based; conditions: in vivo
[7] = Metabolic stability at mouse liver S9 fraction after 60 mins; format: ADME, subcellular; conditions: read-out: Stability

Vascular endothelial growth factor receptor 2, sequence (P35968 whole entry): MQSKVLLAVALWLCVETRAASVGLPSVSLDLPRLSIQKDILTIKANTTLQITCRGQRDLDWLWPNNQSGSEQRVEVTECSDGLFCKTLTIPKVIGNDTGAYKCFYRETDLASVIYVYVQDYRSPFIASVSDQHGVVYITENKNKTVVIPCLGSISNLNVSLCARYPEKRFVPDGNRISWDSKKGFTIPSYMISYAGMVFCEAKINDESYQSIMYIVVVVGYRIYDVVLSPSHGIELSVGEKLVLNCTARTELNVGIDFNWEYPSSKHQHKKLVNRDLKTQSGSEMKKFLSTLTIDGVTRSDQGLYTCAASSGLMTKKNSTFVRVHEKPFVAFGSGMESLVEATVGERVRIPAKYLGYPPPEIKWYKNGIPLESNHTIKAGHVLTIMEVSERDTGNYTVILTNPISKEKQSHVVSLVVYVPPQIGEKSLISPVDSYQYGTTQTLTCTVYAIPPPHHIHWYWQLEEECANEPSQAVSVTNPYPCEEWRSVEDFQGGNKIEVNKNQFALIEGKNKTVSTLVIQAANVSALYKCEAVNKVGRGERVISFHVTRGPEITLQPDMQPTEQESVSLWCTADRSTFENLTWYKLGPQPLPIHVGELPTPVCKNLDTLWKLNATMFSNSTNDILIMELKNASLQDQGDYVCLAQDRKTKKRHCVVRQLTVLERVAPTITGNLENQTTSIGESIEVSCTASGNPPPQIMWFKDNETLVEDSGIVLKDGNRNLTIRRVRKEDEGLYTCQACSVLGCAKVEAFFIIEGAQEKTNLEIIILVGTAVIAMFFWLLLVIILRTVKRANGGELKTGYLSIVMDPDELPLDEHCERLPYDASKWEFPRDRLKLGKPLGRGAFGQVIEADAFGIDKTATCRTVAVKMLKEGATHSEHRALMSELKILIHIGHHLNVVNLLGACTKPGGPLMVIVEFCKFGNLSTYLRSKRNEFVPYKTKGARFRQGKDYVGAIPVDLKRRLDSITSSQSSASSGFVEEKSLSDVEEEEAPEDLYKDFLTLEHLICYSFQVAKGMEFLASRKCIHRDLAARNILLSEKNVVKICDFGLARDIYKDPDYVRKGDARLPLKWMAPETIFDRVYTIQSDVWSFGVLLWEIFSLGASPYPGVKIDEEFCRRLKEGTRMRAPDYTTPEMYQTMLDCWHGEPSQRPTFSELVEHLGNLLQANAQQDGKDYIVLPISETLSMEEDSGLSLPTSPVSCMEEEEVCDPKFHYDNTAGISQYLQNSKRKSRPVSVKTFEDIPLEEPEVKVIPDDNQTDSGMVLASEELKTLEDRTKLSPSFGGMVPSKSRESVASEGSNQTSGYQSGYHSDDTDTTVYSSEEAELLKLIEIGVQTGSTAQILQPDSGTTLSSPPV
Cyclin-dependent kinase 4, sequence (P11802 whole entry): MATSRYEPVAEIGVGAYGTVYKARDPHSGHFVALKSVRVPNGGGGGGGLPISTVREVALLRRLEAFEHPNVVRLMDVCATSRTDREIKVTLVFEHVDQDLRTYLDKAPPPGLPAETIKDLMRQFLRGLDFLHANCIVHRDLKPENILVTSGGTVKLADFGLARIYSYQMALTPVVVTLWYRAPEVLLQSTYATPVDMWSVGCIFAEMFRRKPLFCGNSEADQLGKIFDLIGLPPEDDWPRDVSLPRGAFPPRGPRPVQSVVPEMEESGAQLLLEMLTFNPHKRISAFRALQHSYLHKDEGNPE

Cc1nn2ncccc2c1-c1ccnc(NC2CC2)n1
IC50 [1]: > 20 µM
IC50 [2]: 0.8 µM

O=[N+]([O-])c1cccc(Nc2nccc(-c3cnn4ncccc34)n2)c1
IC50 [2]: 0.0003 µM
IC50 [3]: 0.0003 µM

c1cc(-c2cnn3nc(N4CCOCC4)ccc23)nc(NC2CC2)n1 [GW708336X]
IC50 [2]: 0.4 µM
AUC [4]: > 1000 ng·kg·h/mg/mL

N#Cc1ccc(Nc2nccc(-c3cnn4ncccc34)n2)cc1
IC50 [5]: 0.005 µM
IC50 [2]: 0.025 µM
IC50 [3]: 0.002 µM

CCN(CC)CCNC(=O)c1cccc(Nc2nccc(-c3cnn4ncccc34)n2)c1
IC50 [5]: 0.02 µM
IC50 [2]: 0.008 µM
IC50 [3]: 0.04 µM

CC(C)Oc1ccc2c(-c3ccnc(Nc4ccc(N5CCN(C)CC5)cc4)n3)cnn2n1
IC50 [5]: 0.85 µM
IC50 [2]: 0.045 µM
IC50 [3]: 0.23 µM

FC(F)(F)CNc1nccc(-c2cnn3ncccc23)n1 [GW683003X]
IC50 [5]: > 32 µM
IC50 [2]: 1 µM
IC50 [3]: 1 µM

c1csc(-c2ccc3c(-c4ccnc(NC5CC5)n4)cnn3n2)c1
IC50 [5]: > 32 µM
IC50 [2]: 0.25 µM

NC(=O)c1ccc(Nc2nccc(-c3cnn4ncccc34)n2)cc1
IC50 [5]: 0.02 µM
IC50 [2]: 0.16 µM
IC50 [3]: 0.016 µM

O=[N+]([O-])c1ccc(Nc2nccc(-c3cnn4ncccc34)n2)cc1
IC50 [5]: 0.005 µM
IC50 [2]: 0.008 µM
IC50 [3]: 0.003 µM

Fc1ccc(-c2ccc3c(-c4ccnc(NC5CC5)n4)cnn3n2)cc1
IC50 [5]: > 32 µM
IC50 [2]: 0.25 µM

O=C(O)c1ccc(Nc2nccc(-c3cnn4ncccc34)n2)cc1
IC50 [5]: 0.05 µM
IC50 [2]: 0.79 µM
IC50 [3]: 0.04 µM

CC(C)Oc1ccc2c(-c3ccnc(NC4CC4)n3)cnn2n1
IC50 [5]: 25 µM
IC50 [2]: 1.6 µM
AUC [4]: > 1000 ng·kg·h/mg/mL

CN1CCN(c2ccc(Nc3nccc(-c4cnn5nc(-c6ccc(F)cc6)ccc45)n3)cc2)CC1
IC50 [5]: > 25 µM
IC50 [2]: 0.026 µM
IC50 [3]: 0.74 µM

Oc1ccc2c(-c3ccnc(NC4CC4)n3)cnn2n1
IC50 [5]: 25 µM
IC50 [2]: 1.3 µM

CC(C)c1ccc(Nc2nccc(-c3cnn4ncccc34)n2)cc1 [GW805758X]
IC50 [5]: 0.016 µM
IC50 [3]: 0.04 µM

c1cc(Nc2nccc(-c3cnn4ncccc34)n2)cc(-c2cocn2)c1
IC50 [5]: 0.008 µM
IC50 [2]: 0.016 µM
IC50 [3]: 0.003 µM

Clc1ccc(CNc2nccc(-c3cnn4ncccc34)n2)cc1 [GW781673X]
IC50 [2]: 1 µM
IC50 [3]: 1 µM

N#Cc1cccc(Nc2nccc(-c3cnn4ncccc34)n2)c1 [GW778894X]
IC50 [2]: 0.004 µM
IC50 [3]: 0.002 µM

c1cnn2ncc(-c3ccnc(NCCCN4CCOCC4)n3)c2c1 [GW683109X]
IC50 [2]: 3.2 µM

CN(C)CC(O)COc1ccc(Nc2nccc(-c3cnn4nc(N5CCOCC5)ccc34)n2)cc1 (stereo not given)
IC50 [2]: 0.038 µM
AUC [6]: > 7000 ng·kg·h/mg/mL
remaining at 1 h [7]: 46%

Cc1nn2ncccc2c1-c1ccnc(Nc2ccc(N3CCN(C)CC3)cc2)n1
IC50 [1]: 0.063 µM
IC50 [2]: 0.05 µM

CCc1nn2ncccc2c1-c1ccnc(Nc2ccc(N3CCN(C)CC3)cc2)n1
IC50 [1]: 0.063 µM
IC50 [2]: 0.025 µM

CCc1nn2ncccc2c1-c1ccnc(NC2CC2)n1 [GW683768X]
IC50 [1]: 3.2 µM
IC50 [2]: 2 µM

C=Cc1ccc2c(-c3ccnc(NC4CC4)n3)cnn2n1
IC50 [5]: 3.2 µM
IC50 [2]: 0.2 µM

CCN(CC)Cc1cccc(Nc2nccc(-c3cnn4ncccc34)n2)c1
IC50 [5]: 0.079 µM
IC50 [2]: 0.012 µM
IC50 [3]: 0.05 µM

c1cnn2ncc(-c3ccnc(NC4CC4)n3)c2c1
IC50 [1]: > 20 µM
IC50 [2]: 0.08 µM
remaining at 1 h [7]: 85%

c1cc(-c2cnn3nc(N4CCCC4)ccc23)nc(NC2CC2)n1
IC50 [5]: 25 µM
IC50 [2]: 0.5 µM

CCCCc1nn2ncccc2c1-c1ccnc(NC2CC2)n1
IC50 [1]: 2.5 µM
IC50 [2]: > 40 µM

c1cc(-c2cnn3nc(NC4CCCC4)ccc23)nc(NC2CC2)n1
IC50 [5]: 25 µM
IC50 [2]: 0.16 µM

COc1ccc2c(-c3ccnc(NC4CC4)n3)cnn2n1
IC50 [5]: 25 µM
IC50 [2]: 2 µM

CCCCc1nn2ncccc2c1-c1ccnc(Nc2ccc(N3CCN(C)CC3)cc2)n1
IC50 [1]: 0.025 µM
IC50 [2]: 0.8 µM

CN1CCN(c2ccc(Nc3nccc(-c4cnn5ncccc45)n3)cc2)CC1
IC50 [1]: 0.4 µM
IC50 [5]: 0.2 µM
IC50 [2]: 0.012 µM
IC50 [3]: 0.1 µM
